The values that follow come from patent US20240116996A1, “METHODS AND COMPOSITIONS FOR TREATING A CORONAVIRUS INFECTION” (Recovery Therapeutics, Inc., priority 2021, published 2024).

Where two headings read alike, the source gives them in different places.

The subject of data set [1] is human coronavirus strain 229E (HCoV-229E). It is filed as cell-based. The following applies: FGF-2 1 ng/mL to 0.003 ng/mL, XTT.
Data set [2] deals with SARS-CoV-2 (strain USA-WA1/2020). It is filed as in vivo, Golden Syrian hamsters. To be noted: lungs on D6.
The test system of data set [3] is HAP1 cells. To be noted: increasing concentrations of FGF-2 up to 1 ng/mL, XTT.

As to “FGF-2: Recombinant human FGF-2 (SEQ ID NO. 1, 18 kDa low molecular weight isoform); Sigma-Aldrich F0291 in Example 1, PeproTech 100-18B in Example 2”, in data set [1], the “EC50 (dose-dependent enhancement of cell survival)” value stood at 0.08 ng/mL. For the same substance, the “reduction in viral load compared to vehicle-treated animals” value in data set [2] (20 μg FGF-2 intravenous on D-1, D0, D1, D2) stood at 51%; in data set [2] (50 μg FGF-2 intravenous on D-1, D0, D1, D2) it was 73%. Moreover, the toxicity result in data set [3] is on record as “without toxicity”.
